From PubChem BioAssay AID1918993 (Molecular Pharmacology Branch, DTP, NCI, 2023)

System: 233499-124-R-J3-PDC complex spheroid growth
Assay: Anticancer human tumor 233499-124-R-J3-PDC patient-derived colon adenocarcinoma cell line growth inhibition [AhR]
Details: for IC50: curve of first compound; for viability, T/C: stronger effect = lower value
Outline: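 Complex tumor spheroids co-cultured with HUVEC and human MSC stroma; AhR antagonists tested in combination with standard-of-care and investigational agents. Top concentration at or near clinical Cmax (else 10 microM), half-log dilutions; growth expressed as percent test/control.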
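Further: spheroids exposed to agents for seven days before reading.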

Work on `CC(C)CC(NC(=O)C(Cc1ccccc1)NC(=O)c1cnccn1)B(O)O` (stereo not given) + Cc1cncc(-c2nc(NCCc3c[nH]c4ccccc34)c3ncn(C(C)C)c3n2)c1 yielded an IC50 (second compound 0.1 µM) of 15.4 nM, an IC50 (second compound 0.316 µM) of 13.3 nM and an IC50 (second compound 1 µM) of 13.2 nM. The IC50 (second compound 3.16 µM) was 12.9 nM, the IC50 (second compound 10 µM) was < 0.949 nM and the viability, T/C (second compound 0.1 µM, first compound 0.000949 µM) was 98.3%. The viability, T/C (second compound 0.1 µM, first compound 0.003 µM) was 95.1%, the viability, T/C (second compound 0.1 µM, first compound 0.00949 µM) was 86.4% and the viability, T/C (second compound 0.1 µM, first compound 0.03 µM) was 0.15%. The viability, T/C (second compound 0.1 µM, first compound 0.0949 µM) was 0.05%, the viability, T/C (second compound 0.1 µM, first compound 0.3 µM) was 0.13% and the viability, T/C (second compound 0.316 µM, first compound 0.000949 µM) was 92%. It also gave a viability, T/C (second compound 0.316 µM, first compound 0.003 µM) of 86.9%, a viability, T/C (second compound 0.316 µM, first compound 0.00949 µM) of 70.9% and a viability, T/C (second compound 0.316 µM, first compound 0.03 µM) of 0.12%. For the same compound, the viability, T/C (second compound 0.316 µM, first compound 0.0949 µM) was 0.04%, the viability, T/C (second compound 0.316 µM, first compound 0.3 µM) was 0.13% and the viability, T/C (second compound 1 µM, first compound 0.000949 µM) was 92.1%. For the same compound, the viability, T/C (second compound 1 µM, first compound 0.003 µM) was 89%, the viability, T/C (second compound 1 µM, first compound 0.00949 µM) was 69.7% and the viability, T/C (second compound 1 µM, first compound 0.03 µM) was 0.12%. The viability, T/C (second compound 1 µM, first compound 0.0949 µM) was 0.05%, the viability, T/C (second compound 1 µM, first compound 0.3 µM) was 0.13% and the viability, T/C (second compound 3.16 µM, first compound 0.000949 µM) was 86.2%. For the same compound, the viability, T/C (second compound 3.16 µM, first compound 0.003 µM) was 82.1%, the viability, T/C (second compound 3.16 µM, first compound 0.00949 µM) was 68.3% and the viability, T/C (second compound 3.16 µM, first compound 0.03 µM) was 0.11%. For the same compound, the viability, T/C (second compound 3.16 µM, first compound 0.0949 µM) was 0.04%, the viability, T/C (second compound 3.16 µM, first compound 0.3 µM) was 0.9% and the viability, T/C (second compound 10 µM, first compound 0.000949 µM) was 8.49%. It also gave a viability, T/C (second compound 10 µM, first compound 0.003 µM) of 5.28%, a viability, T/C (second compound 10 µM, first compound 0.00949 µM) of 4.74% and a viability, T/C (second compound 10 µM, first compound 0.03 µM) of 0.17%. The viability, T/C (second compound 10 µM, first compound 0.0949 µM) was 0.15% and the viability, T/C (second compound 10 µM, first compound 0.3 µM) was 0.21%.
